US4328231A, “Method of treating psoriasis” (Richter Gedeon Vegyeszeti Gyar Rt., priority 1979, dated 1982)
Structures can show the parent of a compound that is named as a salt.

Legend:
phosphodiesterase [1] = experiment: Inhibition of phosphodiesterase isolated from rat brain tissue (radioisotopic technique, tritium-labelled c-AMP); format: biochemical; settings: 20 minutes incubation, % of control
Description: Our model experiments were carried out by means of phosphodiesterase isolated from animal tissues. More particularly, the enzyme was isolated from the brain tissue of rats following the method of J. Schroder and H. V. Richenberg [Biochem. Biophys. Acta 302, 50 (1973)], whereupon the isolated phosphodiesterase was purified by the method of J. G. Hardman and E. W. Sutherland [J. Biol. Chem. 240, 3704 (1965)]. Finally, the activity of the purified enzyme was measured by the radioisotopic technique of G. Poch, in the presence of an excess amount of tritium-labelled c-AMP, in an incubator, initially without the inhibiting system and thereafter in the presence of a compound of the formula (I) as an inhibitor. The enzyme activity was determined after an incubation time of 20 minutes [N. S. Arch. Pharmacol. 268, 272 (1971)]. From the salts of the test compounds of the formula (I) aqueous 10^-3 molar stock solutions were prepared, their pH was adjusted to 4 to 5. To the incubated enzyme preparations suitable amounts of the stock solution were added in order to obtain a series of test solutions containing a compound of the formula (I) in a concentration of 10^-5, 5× 10^-5, 10^-4, 5×10^-4 and 10^-3 moles/lit. […] The degree of inhibition (decrease of enzyme activity) was expressed in % of the control (enzyme preparation containing no inhibitor).

phosphodiesterase [2] = experiment: as above; format: biochemical; settings: 20 minutes incubation, % of control; remark: listed apart in the source
psoriasis = settings: Voorhees et al.; cited from earlier work
phosphodiesterase [3] = settings: Voorhees et al.; cited from earlier work
adenyl cyclase = settings: Voorhees et al.; cited from earlier work

Row | SMILES | Inhibition (%) obtained by 1 × 10^-4 moles/lit. concentrations of the test compounds (phosphodiesterase [1]) [%] | Inhibition (%) obtained by 1 × 10^-5 moles/lit. concentrations of the test compounds (phosphodiesterase [1]) [%] | Inhibition (%) obtained by 5 × 10^-5 moles/lit. concentrations of the test compounds (phosphodiesterase [1]) [%] | Inhibition (%) obtained by 5 × 10^-6 moles/lit. concentrations of the test compounds (phosphodiesterase [2]) [%] | influencing psoriasis (psoriasis) | inhibition of the function of phosphodiesterase (phosphodiesterase [3]) | stimulation of the function of adenyl cyclase (adenyl cyclase)
1 | CC[C@@]12C=C(C(=O)OC)n3c4c(c5ccccc53)CCN(CCC1)[C@H]42 [Apovincamine] | 54.8 | 20.3 | 33.5 | 21.9 | – | – | –
2 | Cn1c(=O)c2[nH]cnc2n(C)c1=O [Theophylline] | – | – | – | – | succeeded in influencing psoriasis | inhibit the function of phosphodiesterase | –
3 | NC[C@H](O)c1ccc(O)c(O)c1 [norepinephrine] | – | – | – | – | succeeded in influencing psoriasis | – | stimulate the function of adenyl cyclase
4 | CC[C@@]12C=C(C(=O)NN)n3c4c(c5ccccc53)CCN(CCC1)[C@H]42 [Apovincaminic acid-hydrazide, apovincaminic acid hydrazide] | 57.0 | – | 32.0 | – | – | – | –
5 | CC[C@@]12C=C(C(N)=O)n3c4c(c5ccccc53)CCN(CCC1)[C@H]42 [Apovincaminic acid amide] | 76.9 | 22.0 | 60.0 | 10.0 | – | – | –
6 | CC[C@@]12C=C(C(=O)OC)n3c4c(c5ccc(OC)cc53)CCN(CCC1)[C@H]42 [Apovincine-KHSO4] | 71.8 | 49.0 | 59.4 | 36.6 | – | – | –
7 | COc1ccc(Cc2nccc3cc(OC)c(OC)cc23)cc1OC [Papaverine, reference compound] | 56.4 | – | 36.4 | – | succeeded in influencing psoriasis | inhibit the function of phosphodiesterase | –
8 | CC[C@@]12C=C(C(=O)OC)n3c4c(c5ccc(OC)cc53)CCN(CCC1)[C@H]42 [Apovincine-tartrate] | 81.6 | 48.7 | 76.9 | 38.1 | – | – | –
9 | CCOC(=O)C1=C[C@]2(CC)CCCN3CCc4c(n1c1cc(OC)ccc41)[C@@H]32 [Apovincinic acid ethyl ester tartrate] | 58.6 | 23.7 | 44.0 | – | – | – | –
10 | CC[C@@]12C=C(COC(C)=O)n3c4c(c5ccc(OC)cc53)CCN(CCC1)[C@H]42 [Tartrate salt of apovincinol-acetate] | 62.3 | 34.8 | 45.2 | 30.9 | – | – | –
